Experimental data published in publication PMC4336625 (ACS Chemical Biology, 2014).

Tests used:
PLD1 [1] = molecular target: T1, PLD1 (Homo sapiens, UniProt Q13393); type: cell-based; conditions: read-out: mammalian PLD1 IC50
T1 sequence (Q13393 1-1074): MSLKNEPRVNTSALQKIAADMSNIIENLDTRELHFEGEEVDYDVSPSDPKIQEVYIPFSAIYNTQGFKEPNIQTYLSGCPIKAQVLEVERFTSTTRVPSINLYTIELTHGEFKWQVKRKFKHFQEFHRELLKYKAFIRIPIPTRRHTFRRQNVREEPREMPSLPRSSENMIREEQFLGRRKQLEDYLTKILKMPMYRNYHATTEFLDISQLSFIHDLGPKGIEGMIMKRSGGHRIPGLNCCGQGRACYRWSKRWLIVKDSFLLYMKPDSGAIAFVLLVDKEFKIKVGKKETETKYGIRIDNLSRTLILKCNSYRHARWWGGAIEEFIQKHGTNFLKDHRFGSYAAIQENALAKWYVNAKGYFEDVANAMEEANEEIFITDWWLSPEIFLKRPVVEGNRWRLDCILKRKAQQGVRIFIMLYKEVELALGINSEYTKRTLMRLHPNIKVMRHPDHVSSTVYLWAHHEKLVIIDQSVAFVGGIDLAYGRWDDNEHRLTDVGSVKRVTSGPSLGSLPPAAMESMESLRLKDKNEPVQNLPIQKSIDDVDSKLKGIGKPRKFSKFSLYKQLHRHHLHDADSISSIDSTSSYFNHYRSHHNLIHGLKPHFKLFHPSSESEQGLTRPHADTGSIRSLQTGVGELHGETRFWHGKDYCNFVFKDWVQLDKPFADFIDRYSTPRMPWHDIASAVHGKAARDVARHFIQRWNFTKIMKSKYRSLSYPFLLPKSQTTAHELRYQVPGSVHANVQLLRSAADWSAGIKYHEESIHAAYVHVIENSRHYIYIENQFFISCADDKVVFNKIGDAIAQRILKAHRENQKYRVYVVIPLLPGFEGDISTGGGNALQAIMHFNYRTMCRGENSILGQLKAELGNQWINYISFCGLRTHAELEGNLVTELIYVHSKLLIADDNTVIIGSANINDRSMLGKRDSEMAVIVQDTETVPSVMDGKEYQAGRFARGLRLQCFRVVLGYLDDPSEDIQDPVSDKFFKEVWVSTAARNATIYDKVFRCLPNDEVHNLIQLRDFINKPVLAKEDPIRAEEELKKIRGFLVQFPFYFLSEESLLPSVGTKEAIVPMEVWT

PLD1 [2] = molecular target: T1, PLD1; conditions: cited from earlier work
PLD2 = PLD2 (Homo sapiens, UniProt O14939); conditions: cited from earlier work
PldA = PldA (Pseudomonas aeruginosa, UniProt Q9HYC2); type: biochemical
[3] = molecular target: recombinant human NAPE-PLD (Homo sapiens, UniProt Q6IQ20); assay: NAPE-PLD activity assay; type: biochemical; conditions: 20 μM
Sequence of recombinant human NAPE-PLD (Q6IQ20 whole entry): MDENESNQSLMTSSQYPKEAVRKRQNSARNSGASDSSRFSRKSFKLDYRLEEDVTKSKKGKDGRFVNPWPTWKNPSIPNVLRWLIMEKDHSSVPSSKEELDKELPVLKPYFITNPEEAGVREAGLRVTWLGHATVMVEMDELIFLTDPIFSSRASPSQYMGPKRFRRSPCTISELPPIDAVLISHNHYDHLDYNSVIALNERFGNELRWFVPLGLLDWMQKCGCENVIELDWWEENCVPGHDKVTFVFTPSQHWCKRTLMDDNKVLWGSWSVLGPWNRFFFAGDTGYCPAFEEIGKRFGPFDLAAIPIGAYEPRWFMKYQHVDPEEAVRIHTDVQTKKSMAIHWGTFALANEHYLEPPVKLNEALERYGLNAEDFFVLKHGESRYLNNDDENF

Sequence of PLD2 (O14939 whole entry): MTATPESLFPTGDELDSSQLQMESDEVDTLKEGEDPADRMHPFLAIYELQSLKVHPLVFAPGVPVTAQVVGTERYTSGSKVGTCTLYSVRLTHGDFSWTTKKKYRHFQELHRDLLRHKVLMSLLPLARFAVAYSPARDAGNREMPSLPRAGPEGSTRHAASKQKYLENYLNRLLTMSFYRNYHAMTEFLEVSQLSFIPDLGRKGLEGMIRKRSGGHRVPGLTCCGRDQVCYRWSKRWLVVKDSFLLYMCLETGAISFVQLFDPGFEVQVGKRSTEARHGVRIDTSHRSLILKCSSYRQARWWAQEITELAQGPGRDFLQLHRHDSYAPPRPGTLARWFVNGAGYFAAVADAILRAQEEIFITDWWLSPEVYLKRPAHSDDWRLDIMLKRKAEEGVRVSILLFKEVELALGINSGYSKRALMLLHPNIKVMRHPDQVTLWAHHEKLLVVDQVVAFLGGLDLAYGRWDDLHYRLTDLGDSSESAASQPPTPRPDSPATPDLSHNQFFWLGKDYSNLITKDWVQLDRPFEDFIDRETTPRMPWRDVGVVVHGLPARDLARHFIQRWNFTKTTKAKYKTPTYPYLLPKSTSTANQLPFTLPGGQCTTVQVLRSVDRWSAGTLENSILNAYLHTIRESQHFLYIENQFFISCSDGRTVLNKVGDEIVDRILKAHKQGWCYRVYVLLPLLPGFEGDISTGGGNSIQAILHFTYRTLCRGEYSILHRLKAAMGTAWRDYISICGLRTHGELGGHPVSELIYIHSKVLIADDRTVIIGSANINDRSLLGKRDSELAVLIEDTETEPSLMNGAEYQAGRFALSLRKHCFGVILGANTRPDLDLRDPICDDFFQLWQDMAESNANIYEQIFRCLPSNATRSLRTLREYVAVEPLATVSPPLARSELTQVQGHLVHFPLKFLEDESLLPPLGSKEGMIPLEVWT
Sequence of PldA (Q9HYC2 1-1099): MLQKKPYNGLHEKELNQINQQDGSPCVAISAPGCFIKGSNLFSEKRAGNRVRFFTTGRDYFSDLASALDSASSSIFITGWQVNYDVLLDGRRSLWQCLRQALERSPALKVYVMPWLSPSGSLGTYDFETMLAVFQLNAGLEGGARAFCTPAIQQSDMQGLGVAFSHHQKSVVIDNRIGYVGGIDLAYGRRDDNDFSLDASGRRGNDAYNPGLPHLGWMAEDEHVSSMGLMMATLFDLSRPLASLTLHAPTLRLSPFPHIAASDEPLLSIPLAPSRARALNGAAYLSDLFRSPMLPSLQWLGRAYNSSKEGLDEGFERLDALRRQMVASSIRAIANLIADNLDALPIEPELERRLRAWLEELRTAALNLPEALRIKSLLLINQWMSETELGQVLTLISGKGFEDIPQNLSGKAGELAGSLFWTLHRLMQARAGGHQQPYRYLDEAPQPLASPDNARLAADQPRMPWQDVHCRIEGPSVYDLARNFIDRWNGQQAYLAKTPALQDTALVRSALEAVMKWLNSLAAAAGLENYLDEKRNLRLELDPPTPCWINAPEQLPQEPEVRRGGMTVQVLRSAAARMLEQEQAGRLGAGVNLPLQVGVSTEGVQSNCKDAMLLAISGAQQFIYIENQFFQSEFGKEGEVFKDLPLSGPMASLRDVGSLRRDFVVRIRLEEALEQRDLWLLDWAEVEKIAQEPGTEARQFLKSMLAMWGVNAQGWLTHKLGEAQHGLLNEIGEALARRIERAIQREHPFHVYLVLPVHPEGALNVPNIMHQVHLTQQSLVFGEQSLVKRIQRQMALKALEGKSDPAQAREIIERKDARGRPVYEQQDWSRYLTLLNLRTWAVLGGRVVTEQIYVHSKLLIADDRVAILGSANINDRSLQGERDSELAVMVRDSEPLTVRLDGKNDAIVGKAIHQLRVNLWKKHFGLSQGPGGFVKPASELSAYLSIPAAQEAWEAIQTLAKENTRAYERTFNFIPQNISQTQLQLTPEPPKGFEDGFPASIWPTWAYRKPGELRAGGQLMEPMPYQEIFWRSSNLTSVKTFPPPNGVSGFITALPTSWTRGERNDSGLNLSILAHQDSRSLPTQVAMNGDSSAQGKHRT

SMILES	IC50 (PLD1 [1]) [µM]	PLD1 IC50 (PLD1 [2])	PLD2 IC50 (PLD2)	fold more potent at PldA than inhibitors 2, 3 and 1 (PldA)	inhibition of NAPE-PLD activity, single point [3]
CC/C(=C(\c1ccccc1)c1ccc(OCCN(C)C)cc1)c1ccccc1 [Compound 8, tamoxifen]	> 20	no effect	stimulated		
O=C(c1ccc(OCCN2CCCCC2)cc1)c1c(-c2ccc(O)cc2)sc2cc(O)ccc12 [Compound 7, raloxifene]				5- to 10 fold	not to inhibit
